The assay relates to fleas (Ctenocephalides felis). In words: In vitro evaluation of ingestion activity against fleas. Particulars: flea ingestion test, compound in organic bovine blood (0.5% DMSO), adult fleas, percent mortality between 2 h and 48 h post infestation, read-out: EC50 (the source's name). As to the method:
In Vitro Evaluation of Ingestion Activity Against Fleas (Ctenocephalides felis)
For flea ingestion tests, serial dilutions of the compound stock were performed using DMSO to achieve the desired range for EC50 and EC90 determination. An aliquot of each compound dilution was added to organic bovine blood with a final DMSO concentration of 0.5% and placed in an artificial feeding container. Fipronil is included to serve as a positive control. Ten newly emerged unfed adult fleas, 0-7 days old Ctenocephalides felis, from a laboratory colony, were aspirated into each vial or cage. The cages for flea ingestion assays were held in a temperature-controlled artificial feeding apparatus to allow continual access to organic bovine blood containing the desired concentration of compound. Fresh aliquots of compound-spiked bovine blood were provided daily for the duration of the study. Fleas were evaluated for percent mortality at various time points between 2 h and 48 h post infestation. Fleas showing normal movement and/or jumping ability were considered viable and those showing no movement after tapping the vials were scored as dead.

Bounds are passed on as bounds.

For `Cc1cc(C2=NOC(c3cc(C(F)(F)F)cc(Cl)c3F)(C(F)(F)F)C2)ccc1C(=O)NCC1(C#N)CC1` (single isomer, unassigned) [Example 3.77, N-[(1-cyanocyclopropyl)methyl]-2-methyl-4-[(5R or S)-5-[3-chloro-2-fluoro-5-(trifluoromethyl)phenyl]-5-(trifluoromethyl)-4H-isoxazol-3-yl]benzamide], the LC50 is less than 1 µg/mL. Take `Cc1cc(C2=NOC(c3cc(C(F)(F)F)cc(Cl)c3F)(C(F)(F)F)C2)ccc1C(=O)N[C@@H]1CCN(CC(F)(F)F)C1` (single isomer, unassigned) [Example 3.80, 4-[(5S or R)-5-[3-chloro-2-fluoro-5-(trifluoromethyl)phenyl]-5-(trifluoromethyl)-4H-isoxazol-3-yl]-2-methyl-N-[(3R)-1-(2,2,2-trifluoroethyl)pyrrolidin-3-yl]benzamide]: the LC50 was less than 1 µg/mL. As to `Cc1cc(C2=NOC(c3cc(C(F)(F)F)cc(Cl)c3F)(C(F)(F)F)C2)ccc1C(=O)Nc1cccc(C#N)c1` (single isomer, unassigned) [Example 3.81, N-(3-cyanophenyl)-2-methyl-4-[(5S or R)-5-[3-chloro-2-fluoro-5-(trifluoromethyl)phenyl]-5-(trifluoromethyl)-4H-isoxazol-3-yl]benzamide], the LC50 is less than 3 µg/mL. The same measure for `Cc1cc(C2=NOC(c3cc(C(F)(F)F)cc(Cl)c3F)(C(F)(F)F)C2)ccc1C(=O)NCC1(S(C)(=O)=O)CC1` (single isomer, unassigned) [Example 3.83, 2-methyl-N-[(1-methylsulfonylcyclopropyl)methyl]-4-[(5R or S)-5-[3-chloro-2-fluoro-5-(trifluoromethyl)phenyl]-5-(trifluoromethyl)-4H-isoxazol-3-yl]benzamide]: less than 1 µg/mL; for `Cc1cc(C2=NOC(c3cc(C(F)(F)F)cc(Cl)c3F)(C(F)(F)F)C2)ccc1C(=O)N[C@@H]1CNC(=O)C1` (single isomer, unassigned) [Example 3.84, 4-[(5R or S)-5-[3-chloro-2-fluoro-5-(trifluoromethyl)phenyl]-5-(trifluoromethyl)-4H-isoxazol-3-yl]-2-methyl-N-[(3S)-5-oxopyrrolidin-3-yl]benzamide]: less than 1 µg/mL; for `Cc1cc(C2=NOC(c3cc(C(F)(F)F)cc(Cl)c3F)(C(F)(F)F)C2)ccc1C(=O)N[C@H]1CNC(=O)C1` (single isomer, unassigned) [Example 3.85, 4-[(5R or S)-5-[3-chloro-2-fluoro-5-(trifluoromethyl)phenyl]-5-(trifluoromethyl)-4H-isoxazol-3-yl]-2-methyl-N-[(3R)-5-oxopyrrolidin-3-yl]benzamide]: less than 1 µg/mL. To `CCN1C[C@@H](NC(=O)c2ccc(C3=NOC(c4cc(C(F)(F)F)cc(Cl)c4F)(C(F)(F)F)C3)cc2C)CC1=O` (single isomer, unassigned) [Example 3.86, 4-[(5R or S)-5-[3-chloro-2-fluoro-5-(trifluoromethyl)phenyl]-5-(trifluoromethyl)-4H-isoxazol-3-yl]-N-[(3S)-1-ethyl-5-oxo-pyrrolidin-3-yl]-2-methyl-benzamide] belongs less than 1 µg/mL; to `CCN1C[C@H](NC(=O)c2ccc(C3=NOC(c4cc(C(F)(F)F)cc(Cl)c4F)(C(F)(F)F)C3)cc2C)CC1=O` (single isomer, unassigned) [Example 3.87, 4-[(5R or S)-5-[3-chloro-2-fluoro-5-(trifluoromethyl)phenyl]-5-(trifluoromethyl)-4H-isoxazol-3-yl]-N-[(3R)-1-ethyl-5-oxo-pyrrolidin-3-yl]-2-methyl-benzamide], less than 1 µg/mL.

Regarding `Cc1cc(C2=NO[C@@](c3cc(C(F)(F)F)cc(Cl)c3F)(C(F)(F)F)C2)ccc1C(=O)N[C@@H]1CC[C@H](C#N)C1` (single isomer, unassigned) [Example 3.90, 4-[(5S or R)-5-[3-chloro-2-fluoro-5-(trifluoromethyl)phenyl]-5-(trifluoromethyl)-4H-isoxazol-3-yl]-N-[cis-3-cyanocyclopentyl]-2-methyl-benzamide], the LC50 was less than 1 µg/mL.
